How the values were obtained:
[1] = molecular target: Fes (Homo sapiens, UniProt P07332); test: Kinase inhibition assay (LANCE or HTRF); type: biochemical; conditions: ATP at Km
Procedure: (§1) The IC50 values were determined by measuring phosphorylation of peptide substrate poly at ATP concentrations at the Km.

[2] = molecular target: AXL (Homo sapiens, UniProt P30530); test: cell-based
Procedure: Phosphorylation of the receptors MET, AXL, VEGFR2, and FLT3 was assessed in the transgenic human MKN45 gastric tumor cell line overexpressing MET, mouse embryonic fibroblasts (MEFs) expressing full-length human AXL (AXL-MEFs), human umbilical vein endothelial cells (HUVECs) […], and MEFs expressing full-length human FLT3 (FLT3-wt-MEFs), respectively. […] Then, HUVECs and FLT3-wt-MEFs were stimulated with the ligands VEGF-A (100 ng/ml, for 3 min) and FLT3-ligand (50 ng/ml, for 5 min). MKN45 (overexpressing MET) and AXL-MEFs cells had no stimulation. Cells treated with staurosporine (AXL, FLT3-wt, c-Kit, FLT3, TIE2, VEGF-R2; [1,0E-05 M]) or BMS777607 (MET; [1,0E-06 M]) or sunitinib (VEGF-R3; [1,0E-06 M]) or crizotinib (RON; [1,0E-05 M] were defined as low control (n = 8). The median value of those wells represented the background and was set to 0%. Cells treated with solvent alone were defined as high control (n = 8). The median value of those wells was set to 100%. Test sample-treated cells as well as high and low control were stimulated in identical manner. Quantification of receptor tyrosine kinase autophosphorylation was assessed in 96-well plates via sandwich ELISA using a receptor specific capture antibody and an anti-phosphotyrosine detection antibody. […]

[3] = molecular target: Tyro3 (Homo sapiens, UniProt Q06418); test: Kinase inhibition assay (LANCE or HTRF); type: biochemical; conditions: ATP at Km
Procedure: as §1

[4] = molecular target: MLK; test: Kinase inhibition assay (LANCE or HTRF); type: biochemical, human; conditions: ATP at Km
Procedure: as §1

Sequence of AXL (P30530 26-894): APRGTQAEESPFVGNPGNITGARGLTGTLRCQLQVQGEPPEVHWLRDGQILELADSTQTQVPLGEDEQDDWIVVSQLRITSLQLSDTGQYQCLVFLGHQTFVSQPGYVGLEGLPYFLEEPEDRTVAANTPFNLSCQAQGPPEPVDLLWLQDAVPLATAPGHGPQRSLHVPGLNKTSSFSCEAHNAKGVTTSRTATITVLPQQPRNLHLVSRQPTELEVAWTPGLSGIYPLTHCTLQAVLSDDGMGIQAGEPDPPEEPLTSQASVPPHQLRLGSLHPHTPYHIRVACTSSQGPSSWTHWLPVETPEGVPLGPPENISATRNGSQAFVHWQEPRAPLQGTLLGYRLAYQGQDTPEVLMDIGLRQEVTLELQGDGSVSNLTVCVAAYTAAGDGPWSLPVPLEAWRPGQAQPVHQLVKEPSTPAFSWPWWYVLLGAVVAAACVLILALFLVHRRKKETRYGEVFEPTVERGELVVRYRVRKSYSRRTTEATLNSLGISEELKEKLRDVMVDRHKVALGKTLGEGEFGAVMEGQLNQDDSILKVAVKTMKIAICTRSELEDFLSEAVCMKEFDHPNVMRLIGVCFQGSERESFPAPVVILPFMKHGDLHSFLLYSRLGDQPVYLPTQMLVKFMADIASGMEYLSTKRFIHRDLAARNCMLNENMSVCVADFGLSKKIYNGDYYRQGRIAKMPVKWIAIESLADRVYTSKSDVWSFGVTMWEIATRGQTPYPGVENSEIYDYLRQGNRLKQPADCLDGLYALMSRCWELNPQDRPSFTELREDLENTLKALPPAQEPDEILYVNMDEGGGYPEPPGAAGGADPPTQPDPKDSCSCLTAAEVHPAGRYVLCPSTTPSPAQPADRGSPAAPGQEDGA
Sequence of Fes (P07332 whole entry): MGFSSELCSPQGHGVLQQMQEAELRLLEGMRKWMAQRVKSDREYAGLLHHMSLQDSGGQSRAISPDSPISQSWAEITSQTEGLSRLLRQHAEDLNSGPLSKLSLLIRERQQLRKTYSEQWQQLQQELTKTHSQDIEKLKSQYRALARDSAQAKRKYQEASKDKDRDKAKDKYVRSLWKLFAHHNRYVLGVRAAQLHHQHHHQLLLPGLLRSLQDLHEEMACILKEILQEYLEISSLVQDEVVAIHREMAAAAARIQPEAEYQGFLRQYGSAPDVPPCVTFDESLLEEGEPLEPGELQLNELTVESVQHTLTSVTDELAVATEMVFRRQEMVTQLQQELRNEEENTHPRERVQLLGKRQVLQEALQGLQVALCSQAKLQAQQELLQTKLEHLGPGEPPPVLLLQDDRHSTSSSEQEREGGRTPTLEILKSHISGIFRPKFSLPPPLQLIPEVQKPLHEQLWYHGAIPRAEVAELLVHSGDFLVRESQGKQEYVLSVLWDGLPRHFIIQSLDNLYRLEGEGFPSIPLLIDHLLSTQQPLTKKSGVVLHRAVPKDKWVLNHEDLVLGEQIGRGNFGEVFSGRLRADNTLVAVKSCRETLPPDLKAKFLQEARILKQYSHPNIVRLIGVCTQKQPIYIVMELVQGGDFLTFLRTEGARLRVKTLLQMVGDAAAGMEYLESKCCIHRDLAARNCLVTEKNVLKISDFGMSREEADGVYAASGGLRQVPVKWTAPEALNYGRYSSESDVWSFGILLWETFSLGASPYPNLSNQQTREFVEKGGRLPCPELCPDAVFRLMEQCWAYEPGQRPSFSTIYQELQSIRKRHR
Sequence of Tyro3 (Q06418 41-890): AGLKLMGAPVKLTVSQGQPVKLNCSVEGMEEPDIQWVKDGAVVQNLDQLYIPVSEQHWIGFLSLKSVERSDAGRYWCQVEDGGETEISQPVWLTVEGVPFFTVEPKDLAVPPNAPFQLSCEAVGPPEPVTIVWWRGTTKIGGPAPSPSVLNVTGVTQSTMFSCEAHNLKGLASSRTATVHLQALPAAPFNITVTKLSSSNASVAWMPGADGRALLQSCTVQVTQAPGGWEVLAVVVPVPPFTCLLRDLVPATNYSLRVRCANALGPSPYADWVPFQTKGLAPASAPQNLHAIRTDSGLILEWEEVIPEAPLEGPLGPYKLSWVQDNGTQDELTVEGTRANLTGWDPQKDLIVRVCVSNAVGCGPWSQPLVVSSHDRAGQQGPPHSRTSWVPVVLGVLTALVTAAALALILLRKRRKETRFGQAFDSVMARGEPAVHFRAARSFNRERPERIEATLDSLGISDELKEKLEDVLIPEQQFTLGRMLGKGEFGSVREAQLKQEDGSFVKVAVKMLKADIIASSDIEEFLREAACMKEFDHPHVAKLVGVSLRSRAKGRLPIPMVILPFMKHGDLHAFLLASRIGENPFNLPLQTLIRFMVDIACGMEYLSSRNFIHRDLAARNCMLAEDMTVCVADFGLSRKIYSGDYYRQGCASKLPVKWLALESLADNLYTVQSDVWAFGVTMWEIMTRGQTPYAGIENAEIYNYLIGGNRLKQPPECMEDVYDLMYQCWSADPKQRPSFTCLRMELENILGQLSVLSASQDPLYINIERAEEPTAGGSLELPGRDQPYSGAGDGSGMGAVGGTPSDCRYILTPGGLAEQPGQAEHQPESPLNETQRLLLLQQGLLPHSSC

Cc1c(C(=O)Nc2ccc(Oc3ccnc4cc(OCC(C)(C)O)ccc34)c(F)c2)c(=O)n(-c2ccccc2)n1C [CT053]
IC50 [1]: 0.048 µM
IC50 [2]: 0.00044 µM
IC50 [3]: 0.15 µM
IC50 [4]: 0.16 µM
